For test [1], the target named is T1, FN-6789 (Homo sapiens, UniProt P02751).
T1 construct: type III domains 6-9 without EDB (FN-6789); made in house; host or cells: E. coli BL21 (DE3), pET-21a
The experiment in a line: ELISA specificity: binding of Trx-cystine-knot miniproteins to off-target FN-6789 and control proteins. As to conditions: for off-target and control protein signals: 200 nM Trx-fusion, FN-6789, milk powder, streptavidin, bovine serum albumin. As for the experimental part: FIG. 4: Specificity analysis of Trx-cystine-knot miniprotein clones MCopt 1.0-1/-2/-3 and MCopt 2.0-1/-2/-3. 200 nM of each variant were applied to immobilized FN-B and FN-67B89 target proteins as well as to control proteins FN-6789, milk powder and bovine serum albumin (coated at 1 μg/well). An HRP-conjugated anti-s-tag antibody was used to analyze binding. ELISA was performed in duplicates with Trx-MC-Myc-010 serving as negative control.
FIG. 5: Extended specificity analysis of Trx-cystine-knot miniprotein clones MCopt 1.0-2/-3 and MCopt 2.0-1/-2/3. In total 200 nM of each variant were applied to FN-B, T7-TEV-B, FN-67B89 and FN-B(8-14) target proteins as well as negative controls FN-6789, milk powder, bovine serum albumin, lysozyme, ovalbumin and aldolase (coated at 1 μg/well). ELISA was performed in duplicates, error bars represent standard deviation and Trx-MC-Myc-010 served as negative cystine-knot miniprotein control.
FIG. 6: Saturation-binding curves of MCopt 1.0-2/-3 and MCopt 2.0-1/-2/-3 EDB binding. Trx-cystine-knot miniprotein binding was assayed against FN-B, FN-67B89 and FN-B(8-14) targets as well as against FN-6789 control protein (coated at 1 μg/well) in ten different concentrations. Binding of Trx-cystine-knot miniproteins was detected with an HRP-conjugated anti-s-tag-antibody. ELISAs were performed in duplicates (single values for FN-B(8-14)). A: from top to bottom SEQ ID NOs: 7, 8, and 12; and B: from top to bottom SEQ ID NOs: 11, 8, and 29.
FIG. 9: A: Specificity analysis of Trx-MC-FN-010 to human FN-67B89 and FN-6789 using ELISA. B: Specificity analysis of Trx-MC-FN-016 to human FN-67B89 and FN-6789 using ELISA. Binding of Trx-MC-FN-010 and Trx-MC-FN-016 to FN-67B89 with concentrations ranging from 1.56-50 nM in comparison to FN-6789 was detected with 50 ng of HRP-conjugated anti-S-tag-antibody. ELISA was performed in duplicates using 1 μg coated FN-67B89 or FN-6789 per well.
ELISA was used as technique to analyze protein-protein interactions. Cavities of 96-well microtiter plates (Nunc MaxiSorp™, Thermo Fisher Scientific) were coated with 1 μg FN-B, bovine serum albumin (BSA, Eurobio), milk powder, streptavidin (Sigma Aldrich), T7-His-TEV-B (LD BioPharma), FN-B(8-14) (R&D Systems), lysozyme, ovalbumin (GE Healthcare Life Science), aldolase (GE Healthcare Life Science) or 0.6 μg anti-c-myc-antibody (M4439, Sigma) overnight at 4° C. The wells were washed three times with PBS-T (1×PBS with 0.1% (w/v) Tween-20), blocked with 1× Casein buffer (Sigma Aldrich) diluted in PBS for 2 h at RT and washed again as described. 20 μL of supernatant containing the respective heat-purified fusion protein was added to 80 μL PBS-T or 200 nM of MC-Myc-010 fusion protein (wells with anti-c-myc-antibody) diluted in PBS-T, applied to the cavities and incubated for 1 h at 4° C. After three times of washing with PBS-T, binding of the respective variant was detected with a horseradish peroxidase (HRP)-conjugated anti-S-tag antibody (ab18589 or ab19324, Abcam). Enzymatic reaction was measured with TMB as a chromogenic substrate and stopped with 0.2 M HCl after approximately 5 min. The measurement of absorbance at 450 nm was performed using an Infinite M200 PRO Microplate Reader (Tecan).
Background: ELISA stands for enzyme-linked immunosorbent assay.

Test [2] deals with T2, FN-67B89 (Homo sapiens, UniProt P02751).
T2 construct: FN-67B89, amino acid G1080-E1455; made in house; host or cells: E. coli BL21 (DE3), pET-21a
T2 sequence (P02751 1080-1546): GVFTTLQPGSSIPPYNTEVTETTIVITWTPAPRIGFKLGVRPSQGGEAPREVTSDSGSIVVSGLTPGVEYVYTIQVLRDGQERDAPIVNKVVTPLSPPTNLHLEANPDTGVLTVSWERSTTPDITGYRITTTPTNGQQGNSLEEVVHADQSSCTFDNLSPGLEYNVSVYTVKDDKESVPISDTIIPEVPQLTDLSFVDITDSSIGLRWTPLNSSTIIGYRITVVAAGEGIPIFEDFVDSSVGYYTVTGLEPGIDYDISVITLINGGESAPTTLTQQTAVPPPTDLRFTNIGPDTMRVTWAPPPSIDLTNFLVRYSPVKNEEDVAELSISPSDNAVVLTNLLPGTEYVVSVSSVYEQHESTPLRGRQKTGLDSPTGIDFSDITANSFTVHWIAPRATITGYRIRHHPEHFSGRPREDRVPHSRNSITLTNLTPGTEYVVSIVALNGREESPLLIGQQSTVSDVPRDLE
The experiment in a line: Surface plasmon resonance spectroscopy on immobilized biotinylated FN-67B89. The test is classed as binding. The following applies: for off-rates / binding affinity towards biotinylated FN-67B89: tag-free monomer; for binding affinity towards biotinylated FN-67B89: multi cycle kinetic, 1:1 Langmuir. As to the method:
FIG. 10: A: Kinetic parameters of MC-FN-010 and MC-FN-016 resulting from surface plasmon resonance analysis. Biotinylated human FN-67B89 was immobilized to streptavidin sensor to perform affinity determination of MC-FN-010 and MC-FN-016 using two-fold serial dilutions starting from 4000 nM. Kinetic parameters were calculated using a 1:1 Langmuir fitting model applied to generated sensorgrams. B: Kinetic parameters of AF680-(MC-FN-010)3 and AF680-(MC-FN-016)3 resulting from surface plasmon resonance with single cycle kinetic analysis. Biotinylated human FN-67B89 was immobilized to streptavidin chip to perform binding determination of AF680-(MC-FN-010)3 and AF680-(MC-FN-016)3 using two-fold serial dilution starting from 10 nM. Kinetic parameters were calculated using a 1:1 Langmuir fitting model applied to generated sensorgrams.
FIG. 15: SPR binding analysis of cystine-knot miniprotein variants to EDB. Kinetic parameters of EDB-specific cystine-knot miniprotein variants as measured by surface plasmon resonance analysis and calculated using a 1:1 Langmuir fitting model. Biotinylated human FN-67B89 was immobilized to a streptavidin sensor to determine affinity of DOTA-(MC-FN-016)3 using two-fold serial dilutions.
Binding kinetics of monomeric and trimeric cystine-knot miniprotein ligands to its target protein was determined using a Biacore T-100 device (GE Healthcare Life Science) with PBS-T as running buffer. For this, the biotinylated FN-67B89 protein (200-300 μg/mL) was captured by binding to a flow cell of a SA sensor chip (GE Healthcare Life Science). To analyze monomeric ligands an immobilized target density of maximum 750 response units (RU) was applied and for trimeric variants a RU of maximum 400 was aimed for. Binding analysis of monomeric ligands was performed using a multi cycle kinetic method with concentrations ranging from 50 to 4000 nM. A cycle started with an association period of 90 sec, followed by a dissociation period of 420 sec and a final regeneration step. Kinetic measurement was conducted applying a flow rate of 20 μL/min. Trimeric variants were analyzed under the same association and dissociation conditions, but using the single cycle kinetic measurement mode in a constant flow of […]. In this case the analyte concentration was between 1.25 nM to 10 nM. Binding kinetics and steady state analysis were calculated using a global kinetic fit model (1:1 Langmuir, Biacore T-100 Evaluation Software, GE Healthcare Life Science).
In general terms: In SPR one partner is held on a chip, and binding of the other changes the refractive index at the surface.

In test [3] the test system is normal mouse brain. Put plainly: Immunofluorescence staining of normal mouse brain sections. The following applies: biotinylated miniprotein tetramerized with Cy3-labeled streptavidin. Format: binding. As for the experimental part: FIG. 12: Representative immunofluorescence staining of normal mouse brain with EDB ligand MC-FN-010 and negative control MC-FN-0115. Tissue sections (6 μm) were stained with tetramerized cystine-knot miniprotein-biotin/strepatividin-Cy3 complex and an anti-CD31 antibody to visualize vasculature. Scale bars, 100 μm.
FIG. 13: Specific binding of MC-FN-010 to tissue sections derived from the human U-87 MG glioblastoma cell line grown as mouse xenograft tumor. Representative immunofluorescence staining of U-87 MG tumor tissues (A) and normal mouse brain (B) with trimeric MC-FN-010 and negative control MC-FN-0115. Tissue sections (6 μm) were stained with Alexa Fluor 680 conjugated trimeric cystine-knot miniproteins and an anti-CD31 antibody detected with a secondary antibody to visualize vasculature. […]
(§1) For immunofluorescence staining cryopreserved tumor or brain pieces were cut in five micron thick sections, fixed in ice cold acetone for 5 min and air-dried. […] Images were captured with a Zeiss Apotome microscope (Carl Zeiss) and analyzed with ZEN software (Carl Zeiss).
(§2) Cryopreserved tumor or brain pieces were cut in six micron thick sections, fixed in l ice cold acetone for 5 min and air-dried. […] CD31 staining of primary anti-mouse CD31 antibody was detected with a secondary anti-rabbit IgG-Cy3 antibody (111-165-003, Jackson ImmunoResearch) diluted 1:400 in PBS with 1% BSA for 30 min at 37° C. […]

For test [4], the system named is U-87 MG tumor tissues. The experiment in a line: Immunofluorescence staining of U-87 MG xenograft tumor sections. The test is classed as binding, human. The following applies: biotinylated miniprotein tetramerized with Cy3-labeled streptavidin; CD31 co-staining. As for the experimental part: FIG. 8: Specific binding of MC-FN-010 to glioblastoma xenograft tumor sections. Representative results of immunofluorescence staining of U-87 MG tumor tissues with EDB ligand MC-FN-010 and negative control MC-FN-0115. The tissue sections (5 μm) were stained with tetramerized cystine-knot miniprotein-biotin strepatividin-Cy3 complex (red) and with an anti-CD31 antibody to visualize vasculature (green). Scale bars indicate 100 μm.
FIG. 13: Specific binding of MC-FN-010 to tissue sections derived from the human U-87 MG glioblastoma cell line grown as mouse xenograft tumor. […] Tissue sections (6 μm) were stained with Alexa Fluor 680 conjugated trimeric cystine-knot miniproteins and an anti-CD31 antibody detected with a secondary antibody to visualize vasculature. […]
as §1, §2
On the technique in general: In xenograft studies the graft and the host belong to different species.

These results are taken from patent publication US12516104B2, “Compositions and methods for diagnosis and treatment of cancer” (BioNTech SE, priority 2018, dated 2026).

Ends that are not written are not given here.

T1 sequence (P02751 32-2386 isoform P02751-1 limits assumed): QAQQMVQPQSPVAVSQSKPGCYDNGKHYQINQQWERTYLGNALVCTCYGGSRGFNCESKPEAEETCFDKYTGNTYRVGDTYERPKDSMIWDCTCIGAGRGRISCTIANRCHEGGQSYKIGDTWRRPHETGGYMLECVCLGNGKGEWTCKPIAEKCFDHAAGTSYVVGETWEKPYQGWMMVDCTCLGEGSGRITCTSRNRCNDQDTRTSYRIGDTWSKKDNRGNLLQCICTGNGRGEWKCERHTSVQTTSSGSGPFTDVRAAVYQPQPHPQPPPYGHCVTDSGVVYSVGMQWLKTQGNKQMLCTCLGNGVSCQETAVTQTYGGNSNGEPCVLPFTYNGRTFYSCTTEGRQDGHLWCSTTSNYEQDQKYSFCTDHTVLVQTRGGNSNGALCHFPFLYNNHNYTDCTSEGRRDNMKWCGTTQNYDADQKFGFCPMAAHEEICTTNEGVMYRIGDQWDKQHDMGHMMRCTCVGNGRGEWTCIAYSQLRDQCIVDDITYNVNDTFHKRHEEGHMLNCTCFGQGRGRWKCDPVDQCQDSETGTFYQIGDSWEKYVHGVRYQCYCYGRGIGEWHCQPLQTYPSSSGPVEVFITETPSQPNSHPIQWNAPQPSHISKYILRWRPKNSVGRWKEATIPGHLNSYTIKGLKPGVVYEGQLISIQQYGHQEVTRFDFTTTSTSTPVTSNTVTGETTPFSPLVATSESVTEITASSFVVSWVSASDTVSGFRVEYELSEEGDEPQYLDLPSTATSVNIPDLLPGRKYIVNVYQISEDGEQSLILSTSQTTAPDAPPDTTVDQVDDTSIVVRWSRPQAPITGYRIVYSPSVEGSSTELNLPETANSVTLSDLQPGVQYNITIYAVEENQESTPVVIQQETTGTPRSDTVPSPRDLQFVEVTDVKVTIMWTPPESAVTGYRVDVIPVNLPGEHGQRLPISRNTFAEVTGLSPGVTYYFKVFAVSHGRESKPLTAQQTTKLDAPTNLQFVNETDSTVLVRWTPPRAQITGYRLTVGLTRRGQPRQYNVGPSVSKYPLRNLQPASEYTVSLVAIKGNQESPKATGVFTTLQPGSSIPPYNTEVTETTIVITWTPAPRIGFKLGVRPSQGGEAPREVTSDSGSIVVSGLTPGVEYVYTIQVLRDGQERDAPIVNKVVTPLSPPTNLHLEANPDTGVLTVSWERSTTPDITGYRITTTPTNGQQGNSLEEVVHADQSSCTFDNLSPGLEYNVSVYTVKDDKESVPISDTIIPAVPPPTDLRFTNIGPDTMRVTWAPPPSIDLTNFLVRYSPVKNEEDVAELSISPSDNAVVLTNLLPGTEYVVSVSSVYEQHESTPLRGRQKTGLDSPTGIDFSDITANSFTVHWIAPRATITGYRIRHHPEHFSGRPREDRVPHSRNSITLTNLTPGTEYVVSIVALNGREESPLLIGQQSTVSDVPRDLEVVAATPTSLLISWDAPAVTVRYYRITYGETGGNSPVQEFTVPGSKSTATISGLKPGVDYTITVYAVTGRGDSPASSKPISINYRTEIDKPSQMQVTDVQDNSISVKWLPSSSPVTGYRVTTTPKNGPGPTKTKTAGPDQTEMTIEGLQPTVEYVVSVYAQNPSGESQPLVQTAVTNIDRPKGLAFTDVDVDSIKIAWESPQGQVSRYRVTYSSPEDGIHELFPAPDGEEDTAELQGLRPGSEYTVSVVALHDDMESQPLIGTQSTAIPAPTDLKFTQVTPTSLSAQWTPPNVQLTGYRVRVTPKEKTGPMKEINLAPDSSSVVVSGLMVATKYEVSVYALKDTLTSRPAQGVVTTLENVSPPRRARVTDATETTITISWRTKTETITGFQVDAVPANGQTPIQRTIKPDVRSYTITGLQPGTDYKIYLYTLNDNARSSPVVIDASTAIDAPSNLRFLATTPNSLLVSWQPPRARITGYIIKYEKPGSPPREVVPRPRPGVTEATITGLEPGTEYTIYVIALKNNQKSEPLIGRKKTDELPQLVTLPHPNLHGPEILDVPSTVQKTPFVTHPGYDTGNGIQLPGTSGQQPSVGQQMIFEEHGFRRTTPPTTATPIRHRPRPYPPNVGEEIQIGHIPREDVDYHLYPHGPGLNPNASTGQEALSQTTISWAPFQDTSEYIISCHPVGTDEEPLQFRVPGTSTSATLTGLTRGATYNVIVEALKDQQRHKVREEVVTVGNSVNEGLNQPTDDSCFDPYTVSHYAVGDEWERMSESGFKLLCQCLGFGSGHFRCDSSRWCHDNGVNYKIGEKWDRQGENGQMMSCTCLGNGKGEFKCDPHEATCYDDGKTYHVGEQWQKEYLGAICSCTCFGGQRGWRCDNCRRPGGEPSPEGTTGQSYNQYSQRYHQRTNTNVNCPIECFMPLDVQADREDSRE

As for “SVCKNVSIMRIRLCRRDSDCPGACICRGNGYCG (cysteine pairing not given here) [MCopt 2.0-1]”, the “off-target and control protein signals” value in test [1] is given as “medium to low”.

“PMCTQRKNRIRLCRRDSDCTGACICRGNGYCG (cysteine pairing not given here) [MC-FN-010]”: the “off-target and control protein signals” value in test [1] is listed as “medium to low”. In addition, in test [2], the off-rates result was “fast” and the “binding affinity towards biotinylated FN-67B89” value is reported as “one digit micromolar range”. Also, in test [2] (tag-free proteins, 50-1000 nM, data not shown), the “binding towards FN-67B89 target protein” value was “strong binding”. The “fluorescence signal on normal mouse brain section” value in test [3] is reported as “No fluorescence signal”. “SVCKQANFVRIRLCRRDSDCPGACICRGNGYCG (cysteine pairing not given here) [MCopt 2.0-3]”: the “off-target and control protein signals” value in test [1] is “medium to low”. Moreover, the “background signals / unspecific binding towards FN-6789 off-target” value in test [1] (dose-dependent saturation-binding ELISA, compared with EDB containing target proteins) is “high degree of unspecific binding”. As to “PMCTQRANRIRLCRRDSDCTGACICRGNGYCG [MC-FN-016]”, in test [2], the off-rates entry was “fast” and the “binding affinity towards biotinylated FN-67B89” value is “one digit micromolar range”. “MCopt 1.0-1: enriched cystine-knot miniprotein clone without the R-I/V-R-(L) motif, SEQ ID NO: 10 (WTCTKKYPNTISCRRDSDCRVTCICRGNGYCG; EDB binding peptide)”: the “off-target and control protein signals” value in test [1] is on record as “high interaction”.

On to “WKCQPTNGYRIRCRRDSDCPGDCICRGNGYCG (cysteine pairing not given here) [MCopt 1.0-2]”, for which the “off-target and control protein signals” value in test [1] is listed as “medium to low”. “PMCTQRANRIAACRRDSDCTGACICRGNGYCG (Control peptide) [MC-FN-0115, reference compound]”: the “immunofluorescence staining of U-87 MG tumor sections” value in test [4] is reported as “no fluorescence signal at all”. In addition, the “fluorescence signal on normal mouse brain section” value in test [3] is reported as “No fluorescence signal”.

On to “SVCAHYNTIRVRLCRRDSDCPGACICRGNGYCG (cysteine pairing not given here) [MCopt 2.0-2]”, for which the “off-target and control protein signals” value in test [1] is reported as “medium to low”.
